Experimental data taken from the NIST ThermoML archive (doi:10.1016/j.jct.2014.03.021).

Experiment: xn = mol fraction of the nth substance listed
Settings: 101 kPa, Liquid; for electrical conductivity: Alternating current cell with electrodes; for speed of sound: Frequency=3 MHz, Sing-around technique in a fixed-path interferometer; for mass density: Vibrating tube method

C[C@H](O)C(=O)[O-].C[N+](C)(C)CCO + O
Settings	electrical conductivity [S/m]	mass density [kg/m3]	speed of sound [m/s]
293.15 K, x1 = 0.0258	3	1036.96	1660.5
293.15 K, x1 = 0.0511	2.99	1063.09	1783.4
293.15 K, x1 = 0.074	2.55	1083.32	1872.8
293.15 K, x1 = 0.1027	1.91	1098.55	1930.6
293.15 K, x1 = 0.1443	–	1111.86	1988.4
293.15 K, x1 = 0.1965	0.806	1122.77	1987.8
293.15 K, x1 = 0.2705	–	1132.07	1989.4
293.15 K, x1 = 0.2957	0.344	1133.96	1985.2
293.15 K, x1 = 0.3897	–	1138.61	1975.3
293.15 K, x1 = 0.5347	0.079	1140.95	1955.9
293.15 K, x1 = 0.6044	0.059	1141.68	1952.1
293.15 K, x1 = 0.6931	0.037	1141.39	1942.5
293.15 K, x1 = 0.7565	–	1141.84	1943.3
293.15 K, x1 = 0.798	0.018	–	–
293.15 K, x1 = 0.8375	–	1142.39	1942.6
293.15 K, x1 = 0.8996	0.01	1142.96	1938.8
293.15 K, x1 = 0.94	–	1143.25	1945.2
293.15 K, x1 = 0.9611	–	1143.37	1944.8
298.15 K, x1 = 0.0258	3.35	1035.09	1665.3
298.15 K, x1 = 0.0511	3.42	1060.72	1781.5
298.15 K, x1 = 0.074	2.85	1080.6	1866
298.15 K, x1 = 0.1027	2.29	1095.58	1920.6
298.15 K, x1 = 0.1443	–	1108.71	1968.2
298.15 K, x1 = 0.1965	1.01	1119.53	1974.6
298.15 K, x1 = 0.2705	–	1128.8	1970.9
298.15 K, x1 = 0.2957	0.405	1130.7	1971.5
298.15 K, x1 = 0.3897	–	1135.35	1957.2
298.15 K, x1 = 0.5347	0.108	1137.68	1941.6
298.15 K, x1 = 0.6044	0.089	1138.43	1937.4
298.15 K, x1 = 0.6931	0.046	1138.13	1927.3
298.15 K, x1 = 0.7565	–	1138.58	1923.3
298.15 K, x1 = 0.798	0.029	–	–
298.15 K, x1 = 0.8375	–	1139.15	1922.5
298.15 K, x1 = 0.8996	0.017	1139.75	1922.9
298.15 K, x1 = 0.94	–	1140.05	1921.7
298.15 K, x1 = 0.9611	–	1140.19	1919.6
303.15 K, x1 = 0.0258	3.68	1033.07	1669
303.15 K, x1 = 0.0511	3.86	1058.28	1779.1
303.15 K, x1 = 0.074	3.23	1077.82	1858.9
303.15 K, x1 = 0.1027	2.57	1092.58	1910.5
303.15 K, x1 = 0.1443	–	1105.56	1954.1
303.15 K, x1 = 0.1965	1.19	1116.28	1961.5
303.15 K, x1 = 0.2705	–	1125.54	1958
303.15 K, x1 = 0.2957	0.497	1127.45	1957.9
303.15 K, x1 = 0.3897	–	1132.15	1944.6
303.15 K, x1 = 0.5347	0.145	1134.46	1927.8
303.15 K, x1 = 0.6044	0.106	1135.19	1923.5
303.15 K, x1 = 0.6931	0.059	1134.84	1912.9
303.15 K, x1 = 0.7565	–	1135.3	1909.5
303.15 K, x1 = 0.798	0.047	–	–
303.15 K, x1 = 0.8375	–	1135.92	1908.6
303.15 K, x1 = 0.8996	0.042	1136.57	1908.1
303.15 K, x1 = 0.94	–	1136.9	1905.4
303.15 K, x1 = 0.9611	–	1137.04	1902.3
308.15 K, x1 = 0.0258	4	1030.91	1671.7
308.15 K, x1 = 0.0511	4.22	1055.74	1776
308.15 K, x1 = 0.074	3.67	1074.99	1851.6
308.15 K, x1 = 0.1027	2.95	1089.55	1900.3
308.15 K, x1 = 0.1443	–	1102.31	1940.6
308.15 K, x1 = 0.1965	1.44	1113.02	1948.6
308.15 K, x1 = 0.2705	–	1122.29	1945.2
308.15 K, x1 = 0.2957	0.622	1124.2	1944.6
308.15 K, x1 = 0.3897	–	1129.04	1932
308.15 K, x1 = 0.5347	0.194	1131.34	1914.3
308.15 K, x1 = 0.6044	0.138	1132.01	1909.9
308.15 K, x1 = 0.6931	0.073	1131.57	1899
308.15 K, x1 = 0.7565	–	1132.02	1896.1
308.15 K, x1 = 0.798	0.053	–	–
308.15 K, x1 = 0.8375	–	1132.67	1895.2
308.15 K, x1 = 0.8996	0.056	1133.39	1894
308.15 K, x1 = 0.94	–	1133.76	1890.3
308.15 K, x1 = 0.9611	–	1133.93	1886.6
313.15 K, x1 = 0.0258	4.38	1028.62	1673.4
313.15 K, x1 = 0.0511	4.67	1053.12	1772.3
313.15 K, x1 = 0.074	4.09	1072.09	1843.8
313.15 K, x1 = 0.1027	3.31	1086.48	1890.1
313.15 K, x1 = 0.1443	–	1099.08	1927.4
313.15 K, x1 = 0.1965	1.65	1109.75	1935.7
313.15 K, x1 = 0.2705	–	1118.95	1932.5
313.15 K, x1 = 0.2957	0.735	1120.95	1931.4
313.15 K, x1 = 0.3897	–	1125.94	1919.3
313.15 K, x1 = 0.5347	0.234	1128.21	1901
313.15 K, x1 = 0.6044	0.169	1128.91	1896.5
313.15 K, x1 = 0.6931	0.103	1128.31	1885.6
313.15 K, x1 = 0.7565	–	1128.77	1883
313.15 K, x1 = 0.798	0.069	–	–
313.15 K, x1 = 0.8375	–	1129.44	1882.1
313.15 K, x1 = 0.8996	0.071	1130.23	1880.5
313.15 K, x1 = 0.94	–	1130.63	1876.1
313.15 K, x1 = 0.9611	–	1130.81	1872
318.15 K, x1 = 0.0258	4.99	1026.22	1674
318.15 K, x1 = 0.0511	5.07	1050.42	1768.1
318.15 K, x1 = 0.074	4.55	1069.15	1835.9
318.15 K, x1 = 0.1027	3.83	1083.38	1879.8
318.15 K, x1 = 0.1443	–	1095.34	1914.8
318.15 K, x1 = 0.1965	1.92	1106.48	1922.8
318.15 K, x1 = 0.2705	–	1115.26	1919.8
318.15 K, x1 = 0.2957	0.898	1117.03	1918.3
318.15 K, x1 = 0.3897	–	1122.53	1906.8
318.15 K, x1 = 0.5347	0.262	1125.08	1888
318.15 K, x1 = 0.6044	0.197	1125.81	1883.5
318.15 K, x1 = 0.6931	0.118	1125	1872.5
318.15 K, x1 = 0.7565	–	1125.55	1870.1
318.15 K, x1 = 0.798	0.103	–	–
318.15 K, x1 = 0.8375	–	1126.28	1869.1
318.15 K, x1 = 0.8996	0.084	1127.07	1867.3
318.15 K, x1 = 0.94	–	1127.56	1862.4
318.15 K, x1 = 0.9611	–	1127.75	1858
323.15 K, x1 = 0.0258	5.23	1023.68	1673.8
323.15 K, x1 = 0.0511	5.47	1047.63	1763.2
323.15 K, x1 = 0.074	5.09	1066.16	1827.6
323.15 K, x1 = 0.1027	4.26	1080.24	1869.2
323.15 K, x1 = 0.1443	–	1092.47	1907
323.15 K, x1 = 0.1965	2.18	1103.2	1910
323.15 K, x1 = 0.2705	–	1112.52	1911.6
323.15 K, x1 = 0.2957	1.01	1114.46	1905.2
323.15 K, x1 = 0.3897	–	1119.8	1898.7
323.15 K, x1 = 0.5347	0.318	1121.95	1875
323.15 K, x1 = 0.6044	0.235	1122.71	1870.6
323.15 K, x1 = 0.6931	0.151	1121.7	1859.6
323.15 K, x1 = 0.7565	–	1122.21	1863
323.15 K, x1 = 0.798	0.134	–	–
323.15 K, x1 = 0.8375	–	1123.02	1861.8
323.15 K, x1 = 0.8996	0.144	1123.98	1854.4
323.15 K, x1 = 0.94	–	1124.48	1854.3
323.15 K, x1 = 0.9611	–	1124.69	1849.7
